# Results: patent US20130288897A1, “SYNERGISTIC PESTICIDAL COMPOSITIONS” (Dow AgroSciences LLC, priority 2012, published 2013)
# Where “and” joins values, the source holds several entries; their conditions need not be identical. Equal values may be shown once.
# Experiments:
# Type in all cases: in vivo
# [1] = system: cotton aphid (CA) Aphis gossypii; test: Cotton aphid track-sprayer test on cotton: Compound A or imidacloprid with Durango (glyphosate) or Durango Blank and AMS (Example XVI); conditions: for % Control (Negatives to zero) Ave / % control Ave / Colbv predicted values Ave: average of 5 reps
# Description: Glyphosate resistant cotton plants (Gossypium hirsutum, cv ‘DP493’) were trimmed to 1 true leaf and infested with mixed stages of cotton aphid (CA) Aphis gossypii 24 h prior to application. Mixed developmental stage CA were infested onto the upper surface of each treated leaf by transferring infested foliage from an insectary colony. Each plant was infested with approximately equal numbers of CA based on visual estimation of aphid density on the infested material. Infested plants were held in the growth chamber (L:D 16:8 and 25° C.). Glyphosate (Durango®, Dow AgroSciences, LLC, Indianapolis, Ind.) was mixed with water at a rate equivalent to 15 ml/L (1.2 qt/Ac). […] A glyphosate free formulation of Durango® was prepared using these same mixing instructions. […] High rate Compound A concentrations were created by diluting Compound A technical material with acetone to achieve a 10 ppm solution. […] […] […] Nozzle height above the canopy was held constant at ca. 30 cm. Plants were evaluated after 3 days from the time of infestation by counting all live cotton aphids on each plant.
# […] Percent control for all treatments was calculated using the rep average for the untreated plants.
# [2] = system: cotton aphid (CA) Aphis gossypii; test: Cotton aphid track-sprayer test on cotton: Compound A or imidacloprid with Glyphomax Plus (glyphosate) and AMS (Example XV)
# Description: Glyphosate resistant cotton plants (Gossypium hirsutum, cv ‘DP493’) were trimmed to 1 true leaf and infested with mixed stages of cotton aphid (CA) Aphis gossypii 24 h prior to application. Mixed developmental stage CA were infested onto the upper surface of each treated leaf by transferring infested foliage from an insectary colony. Each plant was infested with approximately equal numbers of CA based on visual estimation of aphid density on the infested material. Infested plants were held in the growth chamber (L:D 16:8 and 25° C.). Glyphosate (Glyphomax Plus, Dow AgroSciences, LLC, Indianapolis, Ind.) was mixed with water at a rate equivalent to 32 oz/Ac/20 gallons. […] High rate Compound A concentrations were created by diluting Compound A technical material with acetone to achieve a 10 ppm solution. […] When applied through a track sprayer calibrated to 200 L/Ha these concentrations generated use rates of 0.2, 0.04 and 0.008 g/Ha. […] Nozzle height above the canopy was held constant at ca. 30 cm. Plants were evaluated after 3 days from the time of infestation by counting all live cotton aphids on each plant.
# For the purposes of this experiment, the compositions having lower rates of the insecticide were not analyzed. Percent control for all treatments was calculated using the rep average for the untreated plants. […] For all tests, measured efficacy (% Control) data were compared to calculated Colby values (Colby, S. R. 1967. Calculating Synergistic and Antagonistic Responses of Herbicide Combinations. Weeds 15:20-22) using a 2 sided T-test (Minitab). […] The formula used to calculate the Colby value for mixtures of Compound A and either herbicide or AMS was:
# The formula was adapted for compositions including Compound A, herbicide and AMS as follows: […]
# [3] = system: cotton aphid (CA) Aphis gossypii; test: Cotton aphid track-sprayer test on cotton: Compound A with glufosinate (Liberty) and AMS, rates 0.4, 0.1 and 0.025 g/Ha (Example XVIII); conditions: for % control Negatives to zero / CA Counts / Colby Predicted Values: Rep 1-6
# Description: Glyphosate resistant cotton plants (Gossypium hirsutum, cv ‘DP493’) were trimmed to 1 true leaf and infested with mixed stages of cotton aphid (CA) Aphis gossypii 24 hours prior to application. Mixed developmental stage CA were infested onto the upper surface of each treated leaf by transferring infested foliage from an insectary colony. Each plant was infested with approximately equal numbers of CA based on visual estimation of aphid density on the infested material. Infested plants were held in the growth chamber (L:D 16:8 and 25° C.). Glufosinate (Liberty®, Bayer CropScience, Monheim am Rhein, Germany) was mixed with water at a rate equivalent to 5 ml/L (0.4 qt/Ac). […] High rate Compound A concentrations were created by diluting Compound A technical material with acetone to achieve a 20 ppm solution. […] […] […] Nozzle height above the canopy was held constant at ca. 30 cm. Plants were evaluated after 3 days from the time of infestation by counting all live cotton aphids on each plant.
# [4] = 0.0125 g insecticide/Ha with Durango 0.015 ml/ml + AMS 18 g/L
# [5] = 0.0125 g insecticide/Ha with Durango 0.015 ml/ml
# [6] = 0.0125 g insecticide/Ha with Durango Blank 0.015 ml/ml + AMS 18 g/L
# [7] = 0.0125 g insecticide/Ha with Durango Blank 0.015 ml/ml
# [8] = 0.05 g insecticide/Ha with Durango 0.015 ml/ml + AMS 18 g/L
# [9] = 0.05 g insecticide/Ha with Durango 0.015 ml/ml
# [10] = 0.05 g insecticide/Ha with Durango Blank 0.015 ml/ml + AMS 18 g/L
# [11] = 0.05 g insecticide/Ha with Durango Blank 0.015 ml/ml
# [12] = 0.2 g insecticide/Ha with Durango 0.015 ml/ml + AMS 18 g/L
# [13] = 0.2 g insecticide/Ha with Durango 0.015 ml/ml
# [14] = 0.2 g insecticide/Ha with Durango Blank 0.015 ml/ml + AMS 18 g/L
# [15] = 0.2 g insecticide/Ha with Durango Blank 0.015 ml/ml
# [16] = 0.05 g In./HA + Lib. 0.005 ml/ml
# [17] = 0.05 g In./HA + Lib. 0.005 ml/ml + AMS 18 g/L
# [18] = 0.2 g In./HA + Lib. 0.005 ml/ml
# [19] = 0.2 g In./HA + Lib. 0.005 ml/ml + AMS 18 g/L
# [20] = 0.8 g In./HA + Lib. 0.005 ml/ml
# [21] = 0.8 g In./HA + Lib. 0.005 ml/ml + AMS 18 g/L
smiles,measurement,setting,value
"O=[N+]([O-])NC1=NCCN1Cc1ccc(Cl)nc1 [Imidacloprid, imidacloprid, reference compound]",% Control (Negatives to zero) Ave,[1]; [4],26.3%
same,% control Ave,[1]; [4],26.3%
same,Colbv predicted values Ave,[1]; [4],42.0
same,% Control (Negatives to zero) Ave,[1]; [5],17.2%
same,% control Ave,[1]; [5],−0.3%
same,Colbv predicted values Ave,[1]; [5],35.1
same,% Control (Negatives to zero) Ave,[1]; [6],24.7%
same,% control Ave,[1]; [6],−1.1%
same,Colbv predicted values Ave,[1]; [6],51.7
same,% Control (Negatives to zero) Ave,[1]; [7],15.1%
same,% control Ave,[1]; [7],−17.6%
same,Colbv predicted values Ave,[1]; [7],33.8
same,% control Ave,"[1]; 0.0125 g insecticide/Ha, no herbicide, no AMS",15.1%
same,CA Counts,"[1]; 0.05 g insecticide/Ha with Durango 0.015 ml/ml + AMS 18 g/L, Rep 1-5, listed as lmidacloprid",49 and 50 and 71 and 64 and 54
same,% Control (Negatives to zero) Ave,[1]; [8],37.3%
same,% control Ave,[1]; [8],37.3%
same,Colbv predicted values Ave,[1]; [8],46.5
same,% Control (Negatives to zero) Ave,[1]; [9],25.4%
same,% control Ave,[1]; [9],21.8%
same,Colbv predicted values Ave,[1]; [9],38.2
same,CA Counts,"[1]; 0.05 g insecticide/Ha with Durango Blank 0.015 ml/ml + AMS 18 g/L, Rep 1-5, listed as lmidacloprid",82 and 81 and 108 and 73 and 95
same,% Control (Negatives to zero) Ave,[1]; [10],11.2%
same,% control Ave,[1]; [10],5.6%
same,Colbv predicted values Ave,[1]; [10],58.0
same,% Control (Negatives to zero) Ave,[1]; [11],24.8%
same,% control Ave,[1]; [11],20.1%
same,Colbv predicted values Ave,[1]; [11],41.2
same,% control Ave,"[1]; 0.05 g insecticide/Ha, no herbicide, no AMS",29.9%
same,Colbv predicted values,"[1]; 0.2 g insecticide/Ha with Durango 0.015 ml/ml + AMS 18 g/L, Rep 1-5, listed as lmidacloprid",88.5 and 68.2 and 93.5 and 56.2 and 48.8
same,% Control (Negatives to zero) Ave,[1]; [12],30.8%
same,% control Ave,[1]; [12],23.9%
same,Colbv predicted values Ave,[1]; [12],71.0
same,Colbv predicted values,"[1]; 0.2 g insecticide/Ha with Durango 0.015 ml/ml, Rep 1-5, expected additive control, listed as lmidacloprid",74.5 and 68.6 and 84.8 and 56.2 and 48.8
same,% Control (Negatives to zero) Ave,[1]; [13],45.5%
same,% control Ave,[1]; [13],45.5%
same,Colbv predicted values Ave,[1]; [13],66.6
same,Colbv predicted values,"[1]; 0.2 g insecticide/Ha with Durango Blank 0.015 ml/ml + AMS 18 g/L, Rep 1-5, listed as lmidacloprid",96.1 and 88.7 and 75.9 and 68.4 and 48.8
same,% Control (Negatives to zero) Ave,[1]; [14],32.2%
same,% control Ave,[1]; [14],27.3%
same,Colbv predicted values Ave,[1]; [14],75.2
same,Colbv predicted values,"[1]; 0.2 g insecticide/Ha with Durango Blank 0.015 ml/ml, Rep 1-5, listed as lmidacloprid",84.2 and 67.7 and 71.9 and 56.2 and 48.8
same,% Control (Negatives to zero) Ave,[1]; [15],55.3%
same,% control Ave,[1]; [15],55.3%
same,Colbv predicted values Ave,[1]; [15],65.7
same,synergy assessment (measured vs predicted additive Colby values),"[1]; 0.2 g insecticide/Ha, co-applied with AMS and Durango",antagonism of imidacloprid activity
same,CA Counts,"[1]; 0.2 g insecticide/Ha, no herbicide, no AMS, Rep 1-5, live aphids per plant after 3 days, listed as lmidacloprid",30 and 51 and 44 and 32 and 38
same,% control,"[1]; 0.2 g insecticide/Ha, no herbicide, no AMS, Rep 1-5, vs rep average of untreated plants, listed as lmidacloprid",74.5% and 50.4% and 61.1% and 56.2% and 48.8%
same,% control Ave,"[1]; 0.2 g insecticide/Ha, no herbicide, no AMS",58.2%
same,synergy assessment (measured vs predicted additive Colby values),"[1]; 0.2 g insecticide/Ha, only Durango mixed",no effects
same,synergy assessment (measured vs predicted additive Colby values),"[1]; 0.2 g insecticide/Ha, with Durango blank and AMS",antagonistic effect
same,synergy assessment (measured vs predicted additive Colby values),"[1]; 0.2 g insecticide/Ha, with Durango blank formulation",no significant difference between predicted and measured activity
same,synergy assessment (measured control vs Colby values),[2]; insecticide with AMS and herbicide (Glyphomax Plus),not improved compared to imidacloprid alone
same,synergy assessment (measured control vs Colby values),[2]; insecticide with the herbicide (Glyphomax Plus),not present
same,% Control (Negatives to zero) Ave,[3]; [16],24.3%
same,Colby Predicted Values Ave,[3]; [16],45.1
same,% Control (Negatives to zero) Ave,[3]; [17],76.9%
same,Colby Predicted Values Ave,[3]; [17],51.7
same,% Control (Negatives to zero) Ave,"[3]; 0.05 g In./HA, no Lib., no AMS",19.0%
same,% Control (Negatives to zero) Ave,[3]; [18],27.0%
same,Colby Predicted Values Ave,[3]; [18],54.6
same,% Control (Negatives to zero) Ave,[3]; [19],54.3%
same,Colby Predicted Values Ave,[3]; [19],60.7
same,% Control (Negatives to zero) Ave,"[3]; 0.2 g In./HA, no Lib., no AMS",38.7%
same,% Control (Negatives to zero) Ave,[3]; [20],72.3%
same,Colby Predicted Values Ave,[3]; [20],86.1
same,% Control (Negatives to zero) Ave,[3]; [21],96.5%
same,Colby Predicted Values Ave,[3]; [21],88.0
same,% Control (Negatives to zero) Ave,"[3]; 0.8 g In./HA, no Lib., no AMS",80.0%
same,% control Negatives to zero,[3]; [17],84.6% and 71.0% and 86.9% and 48.9% and 79.9% and 89.9%
same,CA Counts,[3]; 0.2 g In./Ha + Liberty 0.005 ml/ml,187 and 234 and 169 and 198 and 265 and 240
same,CA Counts,"[3]; 0.2 g In./Ha, no Liberty, no AMS",154 and 165 and 228 and 241 and 176 and 123
same,% control Negatives to zero,[3]; [20],87.5% and 73.3% and 71.0% and 78.3% and 69.2% and 54.7%
same,Colby Predicted Values,[3]; [20],81.9 and 81.5 and 94.8 and 78.1 and 94.0 and 86.3
same,% control Negatives to zero,[3]; [21],96.7% and 94.4% and 96.0% and 94.2% and 98.3% and 99.7%
same,Colby Predicted Values,[3]; [21],86.8 and 83.6 and 95.2 and 78.2 and 94.5 and 89.7
same,% control Negatives to zero,"[3]; 0.8 g In./HA, no Lib., no AMS",75.5% and 81.5% and 91.6% and 73.2% and 74.2% and 84.3%
